# Patent US11931424B2, “Combination MCL-1 inhibitors with anti-body drug conjugates” (Gilead Sciences, Inc., priority 2021, dated 2024)
# Tested on: panel of breast cancer cell lines
# Assay: Compound A with targeted agents and chemotherapies, 72-hour in vitro proliferation assays
# Assay type: cell-based
# [1] = BT-20 cell line, compound A × partner, 72-hour proliferation
# [2] = CAL-51 cell line, compound A × partner, 72-hour proliferation
# [3] = CAL-85-1 cell line, compound A × partner, 72-hour proliferation
# [4] = CAL-120 cell line, compound A × partner, 72-hour proliferation
# [5] = CAL-148 cell line, compound A × partner, 72-hour proliferation
# [6] = CAMA-1 cell line, compound A × partner, 72-hour proliferation
# [7] = DU-4475 cell line, compound A × partner, 72-hour proliferation
# [8] = EVSA-T cell line, compound A × partner, 72-hour proliferation
# [9] = HCC38, compound A × partner, 72-hour proliferation
# [10] = HCC70, compound A × partner, 72-hour proliferation
# [11] = HCC1143 cell line, compound A × partner, 72-hour proliferation
# [12] = HCC1569, compound A × partner, 72-hour proliferation
# [13] = HCC1806, compound A × partner, 72-hour proliferation
# [14] = HCC1937, compound A × partner, 72-hour proliferation
# [15] = HCC1954, compound A × partner, 72-hour proliferation
# [16] = HCC2218, compound A × partner, 72-hour proliferation
# [17] = HDQ-P1, compound A × partner, 72-hour proliferation
# [18] = HMC-1-8, compound A × partner, 72-hour proliferation
# [19] = JIMT-1, compound A × partner, 72-hour proliferation
# [20] = AU565 cell line, compound A × partner, 72-hour proliferation
# [21] = KPL-1, compound A × partner, 72-hour proliferation
smiles,measurement,setting,value
CC1(C)CCC(CN2CCN(c3ccc(C(=O)NS(=O)(=O)c4ccc(NCC5CCOCC5)c([N+](=O)[O-])c4)c(Oc4cnc5[nH]ccc5c4)c3)CC2)=C(c2ccc(Cl)cc2)C1 [ABT-199],Best CI,72 h,1.23
same,Bliss Volume,72 h,−1.15
same,HSA volume,72 h,−2.69
same,Loewe Volume,72 h,−0.11
same,Synergy Score,72 h,3.31
same,Best CI,[1],0.62
same,Bliss Volume,[1],6.83
same,HSA volume,[1],5.47
same,Loewe Volume,[1],5.94
same,Synergy Score,[1],13.39
same,Best CI,[2],0.58
same,Bliss Volume,[2],0.44
same,HSA volume,[2],−2.62
same,Loewe Volume,[2],0.83
same,Synergy Score,[2],0.56
same,Best CI,[3],0.83
same,Bliss Volume,[3],−1.49
same,HSA volume,[3],−2.11
same,Loewe Volume,[3],−1.27
same,Synergy Score,[3],1.08
same,Best CI,[4],0.85
same,Bliss Volume,[4],3.85
same,HSA volume,[4],−1.21
same,Loewe Volume,[4],−0.16
same,Synergy Score,[4],0.62
same,Best CI,[5],0.47
same,Bliss Volume,[5],3.32
same,HSA volume,[5],−0.66
same,Loewe Volume,[5],3.11
same,Synergy Score,[5],2.74
same,Best CI,[6],0.38
same,Bliss Volume,[6],8.30
same,HSA volume,[6],4.83
same,Loewe Volume,[6],8.10
same,Best CI,[7],1.15
same,Bliss Volume,[7],10.43
same,HSA volume,[7],8.46
same,Loewe Volume,[7],10.37
same,Synergy Score,[7],10.64
same,Best CI,[8],1.07
same,Bliss Volume,[8],1.29
same,HSA volume,[8],−0.86
same,Loewe Volume,[8],0.99
same,Synergy Score,[8],4.67
same,Best CI,[9],0.77
same,Bliss Volume,[9],−3.14
same,HSA volume,[9],−0.71
same,Loewe Volume,[9],0.50
same,Synergy Score,[9],5.65
same,Best CI,[10],0.43
same,Bliss Volume,[10],15.68
same,HSA volume,[10],14.46
same,Loewe Volume,[10],15.44
same,Synergy Score,[10],28.95
same,Best CI,[11],0.82
same,Bliss Volume,[11],2.43
same,HSA volume,[11],−2.65
same,Loewe Volume,[11],−1.50
same,Synergy Score,[11],3.01
same,Best CI,[12],0.51
same,Bliss Volume,[12],15.86
same,HSA volume,[12],14.50
same,Loewe Volume,[12],16.04
same,Synergy Score,[12],14.35
same,Best CI,[13],0.83
same,Bliss Volume,[13],3.80
same,HSA volume,[13],4.70
same,Loewe Volume,[13],5.23
same,Synergy Score,[13],6.31
same,Best CI,[14],0.22
same,Bliss Volume,[14],8.42
same,HSA volume,[14],2.68
same,Loewe Volume,[14],4.59
same,Synergy Score,[14],1.43
same,Best CI,[15],0.60
same,Bliss Volume,[15],12.55
same,HSA volume,[15],10.72
same,Loewe Volume,[15],12.18
same,Synergy Score,[15],17.16
same,Best CI,[16],0.43
same,Bliss Volume,[16],7.82
same,HSA volume,[16],8.19
same,Loewe Volume,[16],7.59
same,Synergy Score,[16],15.06
same,Best CI,[17],0.04
same,Bliss Volume,[17],1.77
same,HSA volume,[17],0.38
same,Loewe Volume,[17],1.74
same,Synergy Score,[17],0.96
same,Best CI,[18],0.90
same,Bliss Volume,[18],6.70
same,HSA volume,[18],5.15
same,Loewe Volume,[18],6.08
same,Synergy Score,[18],9.51
same,Best CI,[19],0.14
same,Bliss Volume,[19],−1.41
same,HSA volume,[19],−2.60
same,Loewe Volume,[19],−1.93
same,Synergy Score,[19],0.53
same,Synergy Score,"MCF7 cells, Compound A × partner agent, 72-hour proliferation",1.43
CC1(C)CCC(c2ccc(Cl)cc2)=C(CN2CCN(c3ccc(C(=O)NS(=O)(=O)c4ccc(N[C@H](CCN5CCOCC5)CSc5ccccc5)c(S(=O)(=O)C(F)(F)F)c4)cc3)CC2)C1 [ABT-263],Best CI,[20],0.61
same,Bliss Volume,[20],9.56
same,HSA volume,[20],3.63
same,Loewe Volume,[20],8.42
same,Synergy Score,[20],14.69
same,Best CI,[1],0.05
same,Bliss Volume,[1],36.91
same,HSA volume,[1],37.77
same,Loewe Volume,[1],37.81
same,Synergy Score,[1],84.06
same,Best CI,[2],0.09
same,Bliss Volume,[2],18.29
same,HSA volume,[2],17.50
same,Loewe Volume,[2],18.72
same,Synergy Score,[2],39.59
same,Best CI,[3],0.17
same,Bliss Volume,[3],13.36
same,HSA volume,[3],16.06
same,Loewe Volume,[3],15.97
same,Synergy Score,[3],29.64
same,Best CI,[4],0.21
same,Bliss Volume,[4],15.10
same,HSA volume,[4],15.51
same,Loewe Volume,[4],16.04
same,Synergy Score,[4],24.96
same,Best CI,[5],0.10
same,Bliss Volume,[5],28.25
same,HSA volume,[5],22.50
same,Loewe Volume,[5],27.96
same,Synergy Score,[5],51.82
same,Best CI,[6],0.14
same,Bliss Volume,[6],19.67
same,HSA volume,[6],17.49
same,Loewe Volume,[6],19.32
same,Synergy Score,[6],41.66
same,Best CI,[7],0.48
same,Bliss Volume,[7],24.62
same,HSA volume,[7],22.37
same,Loewe Volume,[7],22.67
same,Synergy Score,[7],35.34
same,Best CI,[8],0.36
same,Bliss Volume,[8],15.42
same,HSA volume,[8],14.19
same,Loewe Volume,[8],14.63
same,Synergy Score,[8],28.16
same,Best CI,[9],0.13
same,Bliss Volume,[9],27.10
same,Synergy Score,[9],37.11
same,Best CI,[10],0.03
same,Bliss Volume,[10],44.63
same,HSA volume,[10],44.49
same,Loewe Volume,[10],44.97
same,Synergy Score,[10],97.06
same,Best CI,[11],0.05
same,Bliss Volume,[11],27.56
same,HSA volume,[11],26.07
same,Loewe Volume,[11],27.51
same,Synergy Score,[11],43.54
same,Best CI,[12],0.13
same,Bliss Volume,[12],27.53
same,HSA volume,[12],24.55
same,Loewe Volume,[12],26.18
same,Synergy Score,[12],46.64
same,Best CI,[13],0.03
same,Bliss Volume,[13],45.40
same,HSA volume,[13],46.37
same,Loewe Volume,[13],46.26
same,Synergy Score,[13],90.68
same,Best CI,[14],0.18
same,Bliss Volume,[14],26.87
same,HSA volume,[14],22.28
same,Loewe Volume,[14],26.31
same,Synergy Score,[14],43.69
same,Best CI,[15],0.03
same,Bliss Volume,[15],36.37
same,HSA volume,[15],36.78
same,Loewe Volume,[15],37.10
same,Synergy Score,[15],76.44
same,Best CI,[16],0.07
same,Bliss Volume,[16],28.59
same,HSA volume,[16],29.77
same,Loewe Volume,[16],28.05
same,Synergy Score,[16],59.76
same,Best CI,[17],0.09
same,Bliss Volume,[17],27.19
same,HSA volume,[17],27.41
same,Loewe Volume,[17],28.17
same,Synergy Score,[17],52.33
same,Best CI,[18],0.20
same,Bliss Volume,[18],13.21
same,HSA volume,[18],10.36
same,Loewe Volume,[18],11.80
same,Synergy Score,[18],21.09
same,Best CI,[19],0.18
same,Bliss Volume,[19],18.71
same,HSA volume,[19],12.60
same,Loewe Volume,[19],14.35
same,Synergy Score,[19],19.55
same,Best CI,[21],0.14
same,Synergy Score,[21],13.50
